According to patent publication US20140170236A1, “USE OF PHOSPHORIC ACID” (priority 2010, published 2014):
Where two headings read alike, the source gives them in different places.

How the values were obtained:
[1] = Protocol: (§1) The risk assessment assumed that the calcified plaque would increase at the usual anticipated rate of approximately 15% to 30% a year. They took a daily dose of 2.5 ml of a 23.8% (mg/L) phosphoric acid in water, (183 mg of phosphorus) for a period of six months. […] A third CT calcium scan was performed approximately three months after increasing the dose. This was eight months and twenty days after the initial dosing with phosphoric acid.
[2] = tested on: calcified plaque in the coronary arteries
Description: A coronary computed tomography (CT) calcium scan is a test to assess the build up of plaque (calcification) in the coronary arteries. Because calcium is a component of hard plaque and is a marker of coronary artery disease (CAD) such a scan can be used as a diagnostic tool for CAD. The amount of calcium detected on a CT scan, expressed as a calcium score, reflects the degree and extent of calcium deposits on the walls of coronary arteries. Once calcified plaque begins to accumulate on arterial walls the amount deposited increases logarithmically at a rate of 15% to 30% a year.
The calcium score is an indicator of potential heart risk. […] A higher score is indicative of an increased risk and cardiologists express concern of the possibility of a heart incident at various levels but especially at 400 or above. Some treatments such as the product Crestor®, claim to slow the rate of deposition of plaque.
(§2) The subject then took a 2.5 mL daily dose of a 23.8% (mg/L) solution of phosphoric acid composition comprising 183 mg of phosphorus for a period of twelve months. This represented 26% of the RDA of phosphorous (700 mg) for an adult.
as §1
The subject takes Famotadine for acid reflux and continues to smoke “one or two cigars a week.” The subject began taking a daily dose of 3.75 ml of a 23.8% (mg/L) phosphoric acid solution.
They currently take lipid lowering medication. They began taking 3.75 ml of a 23.8% (mg/L) phosphoric acid solution shortly after […] CT Calcium Scan.
Their medications includes: Benicar®, Crestor®, Niaspan®, and Lovaza®. Two and a half months after having the first Calcium Score assessment they began taking a daily dose of 3.75 ml of a 23.8% (mg/L) phosphoric acid solution. […] Note, cadaver studies consistently indicate that smokers are more prone to advanced artery disease.

[3] = tested on: soft plaque in the arteries; details: Example 2 subject; at the time of the third CT calcium scan; no CTA scan before treatment
Description: At the same time the most recent CT calcium scan was done, a Computed Tomography Angiography (CTA) scan was also done with contrast dye to determine the amount of soft plaque in the arteries.

[4] = tested on: coronary condition; details: Example 1 subject; after twelve months of 2.5 mL daily (183 mg phosphorus); baseline stress test positive
Protocol: (§3) The cardiac interventionist prescribed the same kind of drug therapy as above. A stress test was conducted at this time to provide a baseline for comparing with possible future stress tests.
as §2

[5] = tested on: calcified plaque; details: Example 1 subject; two years after angiogram that showed extensive calcified plaque
Protocol: as §3, §2

[6] = Example 1 subject; 2.5 mL daily (183 mg phosphorus)

O=P(O)(O)O [phosphoric acid]
side-effects related to the phosphoric acid composition ([1]; Example 1 subject, 2.5 mL daily (183 mg phosphorus)): no side-effects
side effects at the higher dose level ([1]; Example 2 subject, daily dose 3.75 ml (274 mg phosphorus)): no side effects
% Whose Ca Score Increased ([2]; All, sample size 5): 20%
calcium score ([2]; Example 1 subject (man, stent), 2.5 mL daily of 23.8% (mg/L) solution, 183 mg phosphorus, after one year, no base score): 29
probability of a heart attack in the next 10 years ([2]; Example 1 subject, after one year of 2.5 mL daily (183 mg phosphorus)): 10%
calcium score ([2]; Example 2 subject, initial score 181, 2.5 ml daily (183 mg phosphorus), second CT scan at six months): 181
calcium score ([2]; Example 2 subject, initial score 181, third scan eight months and twenty days after initial dosing, about three months after increase to 3.75 ml (274 mg phosphorus)): 179
calcium score ([2]; Example 3 subject, initial score 193, 3.75 ml daily of 23.8% (mg/L) solution, approximately six months): 122
reduction of calcium score ([2]; Example 3 subject, 193 to 122, approximately six months of 3.75 ml daily): 37%
calcium score ([2]; Example 4 subject, initial score 85, 3.75 ml of 23.8% (mg/L) solution, eight months): 83
calcium score lower than the initial score ([2]; Example 4 subject, 85 to 83, eight months): 2 points
annual rate of increase of calcium score ([2]; Example 5 subject): 13.4%
calcium score ([2]; Example 5 subject (heavy smoker), initial score 117, 3.75 ml daily of 23.8% (mg/L) solution, eight months after start): 130
increase of calcium score ([2]; Example 5 subject, 117 to 130): 11%
% Whose Ca Score Increased ([2]; Non-Smokers, sample size 4): 0%
% Whose Ca Score Increased ([2]; Smokers, sample size 1): 100%
soft plaque score [3]: 0
second stress echo test result [4]: negative
calcified plaque on CT Angiogram [5]: no calcified plaque except in the area of the stent
bone density on bone scan [6]: normal bone density
